The values that follow are results of earlier work, collected in paper PMC9851200, “Multiparameter phenotypic screening for endogenous TFEB and TFE3 translocation identifies novel chemical series modulating lysosome function” (Autophagy, 2022).

SMILES strings stand for the structures.

Design in all cases: method as in original PKIS2 published data
The target in data set [1] is T1, kinases (KINOMEscan panel) (Homo sapiens, UniProt Q99759).
T1 sequence (Q99759 1-626): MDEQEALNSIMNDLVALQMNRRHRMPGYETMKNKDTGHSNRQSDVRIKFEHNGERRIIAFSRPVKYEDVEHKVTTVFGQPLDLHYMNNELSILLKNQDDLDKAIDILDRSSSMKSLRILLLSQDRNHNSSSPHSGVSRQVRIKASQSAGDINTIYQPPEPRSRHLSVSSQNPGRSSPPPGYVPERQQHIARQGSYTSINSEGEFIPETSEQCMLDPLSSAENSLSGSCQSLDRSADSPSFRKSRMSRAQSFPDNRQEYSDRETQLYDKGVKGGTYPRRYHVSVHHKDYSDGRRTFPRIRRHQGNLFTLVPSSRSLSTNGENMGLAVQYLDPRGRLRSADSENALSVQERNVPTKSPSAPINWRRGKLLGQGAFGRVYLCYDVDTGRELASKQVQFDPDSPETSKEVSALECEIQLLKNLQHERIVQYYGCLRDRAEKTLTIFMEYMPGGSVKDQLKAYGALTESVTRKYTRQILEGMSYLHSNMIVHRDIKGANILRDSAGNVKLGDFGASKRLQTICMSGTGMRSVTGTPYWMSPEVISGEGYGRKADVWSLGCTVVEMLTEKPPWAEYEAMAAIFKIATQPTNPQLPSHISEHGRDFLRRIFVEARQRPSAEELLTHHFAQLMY
The note with it: MAP3K3; Published KINOMEscan; ref original PKIS2 published data; cited from earlier work.

Data set [2] deals with kinases (KINOMEscan panel) (Homo sapiens, UniProt Q86V86). To be noted: kinase PIM3; Published KINOMEscan; ref original PKIS2 published data; cited from earlier work.
For data set [3], the target named is kinases (KINOMEscan panel) (Homo sapiens, UniProt Q00536). The note with it: kinase CDK16; Published KINOMEscan; ref original PKIS2 published data; cited from earlier work.
Data set [4] has as its target kinases (KINOMEscan panel) (Homo sapiens, UniProt Q9HAZ1). The note with it: kinase CLK4; Published KINOMEscan; ref original PKIS2 published data; cited from earlier work.
Data set [5] has as its target T2, kinases (KINOMEscan panel) (Homo sapiens, UniProt Q09013).
T2 sequence (Q09013 1-629): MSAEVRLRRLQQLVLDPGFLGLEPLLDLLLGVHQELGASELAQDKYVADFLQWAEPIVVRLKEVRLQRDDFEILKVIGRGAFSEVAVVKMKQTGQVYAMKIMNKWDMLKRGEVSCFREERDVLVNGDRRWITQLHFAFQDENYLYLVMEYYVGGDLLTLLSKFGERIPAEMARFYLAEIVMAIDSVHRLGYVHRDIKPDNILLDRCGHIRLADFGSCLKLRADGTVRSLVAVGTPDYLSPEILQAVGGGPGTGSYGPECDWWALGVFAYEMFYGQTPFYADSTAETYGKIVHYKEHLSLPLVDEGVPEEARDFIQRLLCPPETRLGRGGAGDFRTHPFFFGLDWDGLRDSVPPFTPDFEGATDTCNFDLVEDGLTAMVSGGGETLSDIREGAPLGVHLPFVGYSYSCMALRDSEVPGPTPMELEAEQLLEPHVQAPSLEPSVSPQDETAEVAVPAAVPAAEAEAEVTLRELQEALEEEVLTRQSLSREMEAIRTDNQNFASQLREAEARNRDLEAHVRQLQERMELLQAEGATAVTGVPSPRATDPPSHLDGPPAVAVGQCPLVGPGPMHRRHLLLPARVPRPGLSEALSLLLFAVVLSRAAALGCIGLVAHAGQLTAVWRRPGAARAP
The note with it: kinase DMPK; Published KINOMEscan; ref original PKIS2 published data; cited from earlier work.

For data set [6], the target named is T3, kinases (KINOMEscan panel) (Homo sapiens, UniProt Q13470).
T3 sequence (Q13470 1-666): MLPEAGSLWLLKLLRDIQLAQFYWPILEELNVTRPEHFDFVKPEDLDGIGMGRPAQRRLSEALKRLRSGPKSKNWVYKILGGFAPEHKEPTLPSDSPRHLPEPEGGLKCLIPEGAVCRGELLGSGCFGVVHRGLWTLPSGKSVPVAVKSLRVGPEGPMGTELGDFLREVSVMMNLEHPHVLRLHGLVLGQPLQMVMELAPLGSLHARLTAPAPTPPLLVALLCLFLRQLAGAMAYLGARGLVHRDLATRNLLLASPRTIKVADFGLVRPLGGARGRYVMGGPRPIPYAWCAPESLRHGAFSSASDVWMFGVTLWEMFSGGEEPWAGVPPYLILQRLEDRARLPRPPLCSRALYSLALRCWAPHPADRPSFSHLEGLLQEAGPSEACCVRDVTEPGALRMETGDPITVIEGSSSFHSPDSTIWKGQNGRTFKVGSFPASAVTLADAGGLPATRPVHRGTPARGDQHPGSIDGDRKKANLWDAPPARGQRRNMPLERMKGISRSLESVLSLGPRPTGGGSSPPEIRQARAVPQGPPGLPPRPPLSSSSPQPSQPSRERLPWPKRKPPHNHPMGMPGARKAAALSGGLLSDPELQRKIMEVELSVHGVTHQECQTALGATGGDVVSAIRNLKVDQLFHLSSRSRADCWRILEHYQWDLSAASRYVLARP
To be noted: TNK1; Published KINOMEscan; ref original PKIS2 published data; cited from earlier work.

The target of data set [7] is kinases (KINOMEscan panel) (Homo sapiens, UniProt Q15569). The note with it: TESK1; Published KINOMEscan; ref original PKIS2 published data; cited from earlier work.
For data set [8], the target named is kinases (KINOMEscan panel) (Homo sapiens, UniProt P07333). To be noted: Published KINOMEscan; ref original PKIS2 published data; cited from earlier work.
Sequence of kinases (KINOMEscan panel) (Homo sapiens, UniProt P07333) (P07333 20-972): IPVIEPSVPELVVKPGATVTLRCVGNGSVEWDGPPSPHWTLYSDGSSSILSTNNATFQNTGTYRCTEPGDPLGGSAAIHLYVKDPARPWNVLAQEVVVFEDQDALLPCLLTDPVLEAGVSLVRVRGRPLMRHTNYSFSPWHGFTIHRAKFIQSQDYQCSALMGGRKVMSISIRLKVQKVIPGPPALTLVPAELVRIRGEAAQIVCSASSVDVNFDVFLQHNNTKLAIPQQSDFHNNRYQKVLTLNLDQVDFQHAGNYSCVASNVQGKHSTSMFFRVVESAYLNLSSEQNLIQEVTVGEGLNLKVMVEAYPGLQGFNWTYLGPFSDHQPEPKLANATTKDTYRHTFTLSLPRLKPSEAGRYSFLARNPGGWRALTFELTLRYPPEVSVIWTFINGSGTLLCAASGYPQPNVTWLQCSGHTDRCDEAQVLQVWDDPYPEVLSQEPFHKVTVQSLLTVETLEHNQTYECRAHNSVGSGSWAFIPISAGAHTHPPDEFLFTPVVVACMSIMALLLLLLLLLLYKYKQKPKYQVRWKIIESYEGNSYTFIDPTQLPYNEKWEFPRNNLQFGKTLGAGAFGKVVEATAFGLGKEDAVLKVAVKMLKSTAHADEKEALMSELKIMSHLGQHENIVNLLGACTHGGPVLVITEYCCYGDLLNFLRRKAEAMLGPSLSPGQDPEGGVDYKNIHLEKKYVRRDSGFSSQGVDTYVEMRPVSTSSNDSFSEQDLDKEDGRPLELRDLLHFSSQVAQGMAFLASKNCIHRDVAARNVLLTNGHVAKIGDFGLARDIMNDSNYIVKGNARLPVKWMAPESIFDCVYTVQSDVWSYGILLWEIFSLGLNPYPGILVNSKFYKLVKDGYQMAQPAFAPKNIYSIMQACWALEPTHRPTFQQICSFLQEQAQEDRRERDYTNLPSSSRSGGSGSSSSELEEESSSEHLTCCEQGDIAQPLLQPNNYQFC

Sequence of kinases (KINOMEscan panel) (Homo sapiens, UniProt Q15569) (Q15569 whole entry): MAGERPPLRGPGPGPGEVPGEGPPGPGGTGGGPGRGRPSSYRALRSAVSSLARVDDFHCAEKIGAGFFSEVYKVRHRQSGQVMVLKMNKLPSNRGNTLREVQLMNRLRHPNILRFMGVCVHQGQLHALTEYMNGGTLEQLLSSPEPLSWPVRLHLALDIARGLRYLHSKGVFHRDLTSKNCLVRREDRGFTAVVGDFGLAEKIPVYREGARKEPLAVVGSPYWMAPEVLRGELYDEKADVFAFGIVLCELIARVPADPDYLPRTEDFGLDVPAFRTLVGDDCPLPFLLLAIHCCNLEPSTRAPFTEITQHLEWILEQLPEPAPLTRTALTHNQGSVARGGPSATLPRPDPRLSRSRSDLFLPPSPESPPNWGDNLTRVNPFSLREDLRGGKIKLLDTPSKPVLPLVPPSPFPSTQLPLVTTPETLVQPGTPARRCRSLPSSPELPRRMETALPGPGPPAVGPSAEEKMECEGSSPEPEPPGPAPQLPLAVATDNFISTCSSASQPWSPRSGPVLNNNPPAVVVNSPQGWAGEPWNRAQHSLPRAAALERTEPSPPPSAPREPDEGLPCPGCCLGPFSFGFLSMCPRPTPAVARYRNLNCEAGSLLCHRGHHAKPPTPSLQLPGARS
Sequence of kinases (KINOMEscan panel) (Homo sapiens, UniProt Q00536) (Q00536 whole entry): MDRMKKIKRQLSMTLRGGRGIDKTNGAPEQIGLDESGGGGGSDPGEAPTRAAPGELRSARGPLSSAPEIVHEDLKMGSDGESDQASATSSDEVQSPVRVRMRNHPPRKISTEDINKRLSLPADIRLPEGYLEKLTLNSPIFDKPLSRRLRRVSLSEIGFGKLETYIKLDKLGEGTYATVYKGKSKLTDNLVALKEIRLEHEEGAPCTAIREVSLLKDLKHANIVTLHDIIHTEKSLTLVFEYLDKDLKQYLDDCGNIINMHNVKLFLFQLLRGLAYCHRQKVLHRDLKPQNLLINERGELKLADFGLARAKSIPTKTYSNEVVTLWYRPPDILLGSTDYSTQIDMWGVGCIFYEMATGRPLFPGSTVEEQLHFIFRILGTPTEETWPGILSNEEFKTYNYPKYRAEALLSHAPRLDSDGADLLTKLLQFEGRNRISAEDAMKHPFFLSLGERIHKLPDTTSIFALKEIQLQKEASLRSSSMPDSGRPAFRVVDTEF
Sequence of kinases (KINOMEscan panel) (Homo sapiens, UniProt Q9HAZ1) (Q9HAZ1 whole entry): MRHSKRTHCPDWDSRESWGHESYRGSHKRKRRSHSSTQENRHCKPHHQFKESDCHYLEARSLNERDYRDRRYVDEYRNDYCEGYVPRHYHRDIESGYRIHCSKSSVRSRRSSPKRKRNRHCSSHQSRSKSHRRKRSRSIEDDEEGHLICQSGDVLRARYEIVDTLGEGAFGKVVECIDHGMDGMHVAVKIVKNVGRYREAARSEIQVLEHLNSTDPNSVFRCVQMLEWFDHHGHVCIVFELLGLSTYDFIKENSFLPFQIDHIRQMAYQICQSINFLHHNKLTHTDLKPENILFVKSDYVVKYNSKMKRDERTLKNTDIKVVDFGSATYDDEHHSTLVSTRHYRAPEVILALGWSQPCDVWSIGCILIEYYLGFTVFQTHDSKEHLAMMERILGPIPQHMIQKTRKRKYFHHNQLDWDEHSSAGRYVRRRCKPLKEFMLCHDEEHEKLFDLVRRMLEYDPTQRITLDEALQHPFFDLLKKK

Consider `Cc1cccc(-c2nc(Nc3ccncc3)c3ccccc3n2)n1` [NK215], for which the “KINOMEscan MAP3K3” value in data set [1] was 0. Further, the “KINOMEscan PIM3” value in data set [2] is reported as 0. Also, the “KINOMEscan CDK16” value in data set [3] is recorded as 0. Moreover, the “KINOMEscan CLK4” value in data set [4] is recorded as 0. Further, the “KINOMEscan DMPK” value in data set [5] was 2. Besides, the “KINOMEscan TNK1” value in data set [6] was 39. Also, the “KINOMEscan TESK1” value in data set [7] was 14. For the same compound, in data set [8], the “KINOMEscan CSF1R” value was 0 and the “KINOMEscan CSF1R-autoinhibited” value is 0.
